From patent US10899759B2, “Positive allosteric modulators of the muscarinic acetylcholine receptor M1” (Vanderbilt University, priority 2016, dated 2021)

Target: T1, human mAChR M1 (Homo sapiens, UniProt P11229)
T1 construct: host or cells: CHO-K1
T1 sequence (P11229 1-460): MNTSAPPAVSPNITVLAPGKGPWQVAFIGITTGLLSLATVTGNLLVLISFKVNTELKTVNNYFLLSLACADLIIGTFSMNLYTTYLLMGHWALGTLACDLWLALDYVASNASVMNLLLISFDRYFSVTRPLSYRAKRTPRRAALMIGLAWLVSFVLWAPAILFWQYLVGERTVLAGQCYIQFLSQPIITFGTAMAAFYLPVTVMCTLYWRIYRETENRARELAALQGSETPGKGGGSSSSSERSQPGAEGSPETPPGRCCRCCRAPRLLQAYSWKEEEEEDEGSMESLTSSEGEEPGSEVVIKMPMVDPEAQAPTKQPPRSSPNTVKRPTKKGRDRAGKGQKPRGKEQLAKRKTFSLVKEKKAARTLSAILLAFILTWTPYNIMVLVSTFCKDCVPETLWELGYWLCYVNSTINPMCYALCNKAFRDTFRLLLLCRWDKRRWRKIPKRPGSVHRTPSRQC
Assay: mAChR M1 cell-based functional assay (calcium mobilization, Fluo-4, FDSS)
Details: CHO-K1 cells stably expressing hM1; for Emax: EC20 acetylcholine response, read-out: Human M1 Emax; for EC50: positive allosteric modulator activity as increase in the EC20 acetylcholine response
Experimental: Chinese hamster ovary (CHO-K1) cells stably expressing rat (r)M1 were purchased from the American Type Culture Collection and cultured according to their indicated protocol. […] To make stable rM2, hM2, rM3, hM4, and rM4 cell lines for use in calcium mobilization assays, these cells also were stably transfected with a chimeric G-protein (Gqi5) (provided by B. R. Conklin, University of California, San Francisco) using Lipofectamine 2000. rM1, hM1, rM3, hM3, rM5, and hM5 cells were grown in Ham's F-12 medium containing 10% heat-inactivated fetal bovine serum (FBS), 20 mM HEPES, and 50 μg/mL G418 sulfate. rM2-Gqi5, hM2-Gqi5, and hM4-Gqi5 cells were grown in the same medium also containing 500 μg/mL Hygromycin B. Stable rM4-Gqi5 cells were grown in DMEM containing 10% heat-inactivated FBS, 20 mM HEPES, 400 μg/mL G418 sulfate, and 500 μg/mL Hygromycin B.
For high throughput measurement of agonist-evoked increases in intracellular calcium, CHO-K1 cells stably expressing muscarinic receptors were plated in growth medium lacking G418 and hygromycin at 15,000 cells/20 μL/well in Greiner 384-well black-walled, tissue culture (TC)-treated, clear-bottom plates (VWR). Cells were incubated overnight at 37° C. and 5% CO2. […] Compound master plates were formatted in an 11 point CRC format (1:3 dilutions) in 100% DMSO with a starting concentration of 10 mM using the BRAVO liquid handler (Agilent). Test compound CRCs were then transferred to daughter plates (240 nL) using the Echo acoustic plate reformatter (Labcyte, Sunnyvale, Calif.) and then diluted into assay buffer (40 μL) to a 2× stock using a Thermo Fisher Combi (Thermo Fisher Scientific, Waltham, Mass.).
Calcium flux was measured using the Functional Drug Screening System (FDSS) 6000 (Hamamatsu Corporation, Tokyo, Japan) as an increase in the fluorescent static ratio. Compounds were applied to cells (20 μL, 2×) using the automated system of the FDSS 6000 at 4 s into the 300 s protocol and the data were collected at 1 Hz. […] Agonist activity was analyzed as a concentration-dependent increase in calcium mobilization upon compound addition. Positive allosteric modulator activity was analyzed as a concentration-dependent increase in the EC20 acetylcholine response. Antagonist activity was analyzed as a concentration-dependent decrease in the EC80 acetylcholine response. Concentration-response curves were generated using a four-parameter logistical equation in XLfit curve fitting software (IDBS, Bridgewater, N.J.) for Excel (Microsoft, Redmond, Wash.) or Prism (GraphPad Software, Inc., San Diego, Calif.).
The compound numbers correspond to the compound numbers used in Table 1.

Emax [%] | EC50 [nM] | Compound
57.7 | 540 | Cc1nc(-c2ccc(Cc3cc(C(=O)NCC4CCOCC4)nc4sccc34)cc2)co1 [Compound 135]
58.9 | 1050 | Cc1nc(-c2ccc(Cc3cc(C(=O)NC4CC(C)OC(C)C4)nc4sccc34)cc2)co1 (stereo not drawn) [Compound 132, N-(2,6-dimethyltetrahydropyran-4-yl)-4-[[4-(2-methyloxazol-4-yl)phenyl]methyl]thieno[2,3-b]pyridine-6-carboxamide]
57.2 | 33600 | Cn1ccc2c(Cc3ccc(-c4nccs4)cc3)cc(C(=O)N[C@H]3CCC[C@@H]3O)nc21 [Compound 64, N-[(1S,2S)-2-hydroxycyclopentyl]-1-methyl-4-[(4-thiazol-2-ylphenyl)methyl]pyrrolo[2,3-b]pyridine-6-carboxamide]
62.8 | 3330 | COCCNC(=O)c1cc(Cc2ccc(-c3ccn(C)n3)cc2)c2ccsc2n1 [Compound 99, N-(2-methoxyethyl)-4-[[4-(1-methylpyrazol-3-yl)phenyl]methyl]thieno[2,3-b]pyridine-6-carboxamide]
76.4 | 1210 | Cn1ccc(-c2ccc(Cc3cc(C(=O)NCC4CCOC4)nc4c3ccn4C)cn2)n1 (stereo not drawn) [Compound 151, 1-methyl-4-[[6-(1-methylpyrazol-3-yl)-3-pyridyl]methyl]-N-(tetrahydrofuran-3-ylmethyl)pyrrolo[2,3-b]pyridine-6-carboxamide]
58.9 | 550 | Cn1cc(-c2ccc(Cc3cc(C(=O)N[C@@H]4CCOC4)nc4sccc34)cn2)cn1 [Compound 121, 4-[[6-(1-methylpyrazol-4-yl)-3-pyridyl]methyl]-N-[(3R)-tetrahydrofuran-3-yl]thieno[2,3-b]pyridine-6-carboxamide]
66.1 | 2530 | Cn1ccc(-c2ccc(Cc3cc(C(=O)NC4CC(F)(F)C4)nc4c3ccn4C)cn2)n1 [Compound 154, N-(3,3-difluorocyclobutyl)-1-methyl-4-[[6-(1-methylpyrazol-3-yl)-3-pyridyl]methyl]pyrrolo[2,3-b]pyridine-6-carboxamide]
63.4 | 270 | Cn1cc(-c2ccc(Cc3cc(C(=O)NC4CC(F)(F)C4)nc4sccc34)cn2)cn1 [Compound 126, N-(3,3-difluorocyclobutyl)-4-[[6-(1-methylpyrazol-4-yl)-3-pyridyl]methyl]thieno[2,3-b]pyridine-6-carboxamide]
42.7 | 1080 | O=C(NCC1CCN1)c1cc(Cc2ccc(-n3cccn3)cc2)c2ccsc2n1 (stereo not drawn) [Compound 84, N-(azetidin-2-ylmethyl)-4-[(4-pyrazol-1-ylphenyl)methyl]thieno[2,3-b]pyridine-6-carboxamide]
68.8 | 420 | O=C(NCC1CCOCC1)c1cc(Cc2ccc(-n3cccn3)cc2)c2ccsc2n1 [Compound 76, 4-[(4-pyrazol-1-ylphenyl)methyl]-N-(tetrahydropyran-4-ylmethyl)thieno[2,3-b]pyridine-6-carboxamide]
68.7 | 1650 | Cn1ccc(-c2ccc(Cc3cc(C(=O)NC4CC(F)(F)C4)nc4sccc34)cc2)n1 [Compound 98, N-(3,3-difluorocyclobutyl)-4-[[4-(1-methylpyrazol-3-yl)phenyl]methyl]thieno[2,3-b]pyridine-6-carboxamide]
72.3 | 430 | O=C(NC1CC2(COC2)C1)c1cc(Cc2ccc(-n3cccn3)cc2)c2ccsc2n1 [Compound 80, N-(2-oxaspiro[3.3]heptan-6-yl)-4-[(4-pyrazol-1-ylphenyl)methyl]thieno[2,3-b]pyridine-6-carboxamide]
74.2 | 920 | Cn1ccc(-c2ccc(Cc3cc(C(=O)N[C@H]4CC[C@@H]4O)nc4c3ccn4C)cn2)n1 [Compound 156, N-[(1S,2S)-2-hydroxycyclobutyl]-1-methyl-4-[[6-(1-methylpyrazol-3-yl)-3-pyridyl]methyl]pyrrolo[2,3-b]pyridine-6-carboxamide]

The remaining lines, values behind:

Compound | Emax [%] | EC50 [nM]
Cn1ncc2c(Cc3ccc(-n4cccn4)cc3)cc(C(=O)NC3CCOCC3)nc21 [Compound 5, 1-methyl-4-[(4-pyrazol-1-ylphenyl)methyl]-N-tetrahydropyran-4-yl-pyrazolo[3,4-b]pyridine-6-carboxamide] | 67.9 | 5940
Cn1ncc2c(Cc3ccc(-c4cscn4)cc3)cc(C(=O)NC3CCOCC3)nc21 [Compound 1, 1-methyl-N-tetrahydropyran-4-yl-4-[(4-thiazol-4-ylphenyl)methyl]pyrazolo[3,4-b]pyridine-6-carboxamide] | 69 | 1420
Cn1ccc(-c2ccc(Cc3cc(C(=O)N[C@@H]4CCC[C@H]4O)nc4c3ccn4C)cc2)n1 [Compound 42, N-[(1R,2R)-2-hydroxycyclopentyl]-1-methy1-4-[[4-(1-methylpyrazol-3-yl)phenyl]methyl]pyrrolo[2,3-b]pyridine-6-carboxamide] | 74.3 | 370
Cn1ccc2c(Cc3ccc(-c4cscn4)cc3)cc(C(=O)NC3COC3)nc21 [Compound 35, 1-methyl-N-(oxetan-3-yl)-4-[(4-thiazol-4-ylphenyl)methyl]pyrrolo[2,3-b]pyridine-6-carboxamide] | 40.2 | 1230
Cn1ccc2c(Cc3ccc(-n4cccn4)cc3)cc(C(=O)NC3CC4(COC4)C3)nc21 [Compound 19, 1-methyl-N-(2-oxaspiro[3.3]heptan-6-yl)-4-[(4-pyrazol-1-ylphenyl)methyl]pyrrolo[2,3-b]pyridine-6-carboxamide] | 68.7 | 110
Cn1ncc2c(Cc3ccc(-c4cscn4)cc3)cc(C(=O)N[C@H]3CCOC[C@@H]3O)nc21 [Compound 27, N-[(3R,4S)-3-hydroxytetrahydropyran-4-yl]-1-methyl-4-[(4-thiazol-4-ylphenyl)methyl]pyrazolo[3,4-b]pyridine-6-carboxamide] | 75.1 | 70
Cn1ncc2c(Cc3ccc(-c4cscn4)cc3)cc(C(=O)N[C@H]3CCCC[C@@H]3O)nc21 [Compound 28, N-[(1S,2S)-2-hydroxycyclohexyl]-1-methyl-4-[(4-thiazol-4-ylphenyl)methyl]pyrazolo[3,4-b]pyridine-6-carboxamide] | 76.4 | 130
Cc1nc(-c2ccc(Cc3cc(C(=O)N[C@H]4CCOC[C@@H]4O)nc4c3ccn4C)cc2)co1 [Compound 51, N-[(3R,4S)-3-hydroxytetrahydropyran-4-yl]-1-methyl-4-[[4-(2-methyloxazol-4-yl)phenyl]methyl]pyrrolo[2,3-b]pyridine-6-carboxamide] | 83.4 | 30
Cn1ccc2c(Cc3ccc(-c4cscn4)cc3)cc(C(=O)NC3CCOCC3)nc21 [Compound 2, 1-methyl-N-tetrahydropyran-4-yl-4-[(4-thiazol-4-ylphenyl)methyl]pyrrolo[2,3-b]pyridine-6-carboxamide] | 71.2 | 230
Cn1ncc2c(Cc3ccc(-c4cscn4)cc3)cc(C(=O)N[C@H]3CC[C@@H]3O)nc21 [Compound 31, N-[(1S,2S)-2-hydroxycyclobutyl]-1-methyl-4-[(4-thiazol-4-ylphenyl)methyl]pyrazolo[3,4-b]pyridine-6-carboxamide] | 79.7 | 3830
Cc1nc(-c2ccc(Cc3cc(C(=O)N[C@H]4CC[C@@H]4O)nc4c3ccn4C)cc2)co1 [Compound 57, N-[(1S,2S)-2-hydroxycyclobutyl]-1-methy1-4-[[4-(2-methyloxazol-4-yl)phenyl]methyl]pyrrolo[2,3-b]pyridine-6-carboxamide] | 83.6 | 840
